Columns and labels:
MV4;11 AML xenografts = experiment: luc-labeled MV4;11 AML cell line xenograft; assay type: in vivo, NRG mice; conditions: MV4;11 xenograft, 15 mg/kg/d PO, 5 days on, 9 days off, 5 cycles
Source text: Immunodeficient NOD-Rag1^nullIL2rg^null (NRG) mice were purchased from Jackson Laboratory (Bar Harbor, ME), bred and housed at the University of Maryland Baltimore. Similar to our previous publication ([20]). mice were transplanted IV with luc-labeled human AML cell lines or cryopreserved AML patient cells on day -10, and baseline total body luminescence was quantified on day 0 by Xenogen bioluminescence imaging (Xenogen IVIS Spectrum; PerkinElmer, Waltham, MA). Mice were allocated to treatment groups so that each group had similar average day 0 luminescence, then groups were administered drugs per oral (PO; gavage). Luminescence of each mouse was assessed over time and compared with that mouse’s day 0 luminescence (fold-change AML burden). Clinical behavior, appearance, weight, and survival were also monitored.
Using our previously determined 5-day MTD SAV drug schedule (i.e. 5-day treatment cycles consisting of 15 mg/kg/d ART631 combined with 150 mg/kg/d VEN and 30 mg/kg/d SOR, followed by 9 days off drug; schematic in Figure 7A ), we assessed treatment of established human luc-labeled MV4;11 ( Figures 7B–D ) and MOLM14 AML ( Figures 8A–C ) cell line xenografts with VEN plus SOR plus ART631 in NRG mice ( Figures 7B , 8A ). […]

[1] = test system: MOLM14, MV4;11, and HL60 human AML cells; parameters: method as in PMID 33560385; conditions: ART631 200 nM, VEN 50 nM, SOR 5 µM; MOLM14, MV4;11, HL60; cited from earlier work

Q: Which “antileukemic activity of monotherapy” value (MV4;11 AML xenografts) does the source give for `C=CCO/N=C(/C[C@H]1O[C@@H]2O[C@@]3(C)CC[C@H]4[C@H](C)CC[C@@H]([C@H]1C)[C@@]24OO3)[C@H]1O[C@@H]2O[C@@]3(C)CC[C@H]4[C@H](C)CC[C@@H]([C@H]1C)[C@@]24OO3` [ART631] here?
A: The value was “no activity”.

Q: And the “cell death as single agents” value [1]?
A: Its value is “less than 15%”.

Source: publication PMC8811960, “A Novel 2-Carbon-Linked Dimeric Artemisinin With Potent Antileukemic Activity and Favorable Pharmacology” (Frontiers in Oncology, 2022)
